Reference: patent publication US20230406849A1, “KRAS INHIBITORS FOR TREATMENT OF CANCERS” (TYLIGAND BIOSCIENCE (SHANGHAI) LIMITED, priority 2020, published 2023)
Like-named read-outs stand apart in the source and are kept apart here.

Experiments:
CYP2D6 = molecular target: T1, CYP2D6 (Homo sapiens, UniProt P10635); test: CYP inhibition in human liver microsomes; assay type: in vitro ADME; conditions: pH 7.4, read-out: CYP inhibition rate (%) 2D6
T1 construct: Human liver microsomes (Corning, Cat #452161); tissue Corning 452161; host or cells: human liver microsomes
Source text: (§1) The inhibitory effect of the compounds of the present disclosure on the cytochrome P450 enzyme system was investigated in this assay.
(§2) [Test materials]: Human liver microsomes (Corning, Cat #452161); Reduced nicotinamide adenine dinucleotide phosphate (NADPH, MCE, Cat #HY-F0003/CS-4998); Phenacetin, Diclofenac, α-naphthoflavone, Omeprazole and Ketoconazole were purchased from TCI; S-Mephenytoin and testosterone were purchased from CAYMAN; Midazolam was purchased from Bioreclamation IVT; Quinidine was purchased from Damas-beta; Sulfaphenazole was purchased from MCE; Bufuralol was purchased from TRC.
(§3) [Experimental procedure]: Preparation of 0.1M potassium phosphate buffer (K-buffer): 100 mM potassium phosphate buffer (K-buffer) was prepared with potassium dihydrogen phosphate and dipotassium hydrogen phosphate, and adjusted to pH 7.4.
(§4) Preparation of 400× test compound and reference inhibitor solutions: 8 μL of 10 mM stock solution of the test compounds was mixed with 12 μL of acetonitrile. Preparation of inhibitor cocktail solution for CYP1A2, CYP2C9 and CYP2D6: […] of 1 mM α-naphthoflavone, 10 µL of 40 mM Sulfaphenazole, 10 μL of 10 mM Quinidine and 8 μL DMSO were mixed. Preparation of inhibitor cocktail solution for CYP3A4 and CYP2C19: 8 μL of DMSO solution was mixed with 12 μL of acetonitrile.
(§5) Preparation of 4×NADPH potassium phosphate solution: 66.7 mg of NADPH was added to 10 mL of K-buffer pH7.4. Preparation of 4× substrate potassium phosphate solution: the different substrates were prepared to 4-fold concentration test solutions with 10 mL 0.1M K-buffer according to the concentration requirements.
(§6) Preparation of 0.2 mg/mL human liver microsomes (HLM) solution: […] of 20 mg/mL human liver microsomes was added to […] K-buffer, and the solution was stored in ice bath until use.
(§7) 600 μL of 0.2 mg/mL HLM was added to a 96-well plate, followed by the addition of 3 μL of a 400-fold test compound solution; 200 μL of 0.2 mg/mL HLM was added to a 96-well plate, and 1 μL of the diluted positive control inhibitor solution was added. 30 μL of the compound solution mixed with human liver microsomes was added into a 96-well plate, and 15 μL of substrate solution was added then. The solutions obtained above, and the prepared NADPH solution were pre-incubated at 37° C. for 5 min. 15 μL of the pre-warmed NADPH solution was added to the reaction plate, mixed well, to initiate the reaction. The reaction plate was incubated at 37° C., for 5 minutes (3A4), for 10 minutes (1A2, 2C9, 2D6), for 45 minutes (2C19). At the end of the reaction, 120 μL of acetonitrile containing internal standard was added to quenched the reaction. Samples were vortexed for 10 min, centrifuged at 5594 g for 15 min, and prepared for LC-MS/MS analysis.

CYP3A4 = molecular target: T2, CYP3A4 (Homo sapiens, UniProt P08684); test: CYP inhibition in human liver microsomes; assay type: in vitro ADME
T2 construct: Human liver microsomes (Corning, Cat #452161); tissue Corning 452161; host or cells: human liver microsomes
Source text: as §1, §2, §3, §4, §5, §6, §7

[1] = Cassette pharmacokinetic experiment in rats (IV); assay type: in vivo; conditions: rat, plasma, 1 mg/kg, male SD rats, tail vein IV, 1 mg/mL each compound at 1 mL/kg
Source text: 2.1 Pharmacokinetic Properties of Some Compounds of the Present Disclosure Evaluated by Cassette Pharmacokinetic Experiments in Rats.
[Test materials]: Male SD rats, age: 6-8 weeks, body weight 220-250 g, purchased from Zhaoyan (Suzhou) New Drug Research Center Co., Ltd.; Tolbutamide (Aladdin, Cat #H1401054); Sulfobutyl-(Captisol, Shandong Binzhou Zhiyuan Biological Technology Co., Ltd, Cat #20191013); Propylene glycol (15)-stearate (Solutol, Meilun Bio, Cat #50206A); DMSO (Vetec Company, Cat #WXBD0293V); acetonitrile (Sigma-Aldrich, Cat #WXBD1744V); Methanol (Sigma-Aldrich, Cat #WXBD2831V).
[Experimental procedure]: The compound combination was prepared in a solvent of 5% DMSO/10% Solutol/85% (20% Captisol), and the final concentration of each compound was 1 mg/mL. The SD rats were treated with the compound preparation in 1 mL/kg by tail vein IV injection, and blood samples were collected at the time points of 5 min, 15 min, 30 min, 1 h, 2 h, 4 h, 8 h, and 24 h via external jugular vein puncture, centrifuged at low temperature for 20 minutes to collect plasma samples, which were stored at −80° C. until analysis.
[Sample analysis]: Establishing LC-MS/MS compound analysis method
Standard curve preparation: 20 μL of lmg/mL DMSO stock solution for each compound was aspirated and transferred to […] of 50% methanol working solution, and the resulting solution was serially diluted to obtain a standard curve working solution with concentrations of 20000, 10000, 5000, 1000, 500, 100, 50, 20 and […]. Then 5 µL of this standard curve working solution was mixed with 45 μL rat blank plasma to give a standard curve with concentrations of 2000, 1000, 500, 100, 50, 10, 2 and 1 ng/mL for quantification of unknown samples.
Sample pretreatment: 50 μL of unknown plasma sample or standard curve sample was mixed with 250 μL of acetonitrile containing internal standard as a precipitant. The plasma protein was precipitated, extracted for test compounds, and centrifuged at low temperature for 20 minutes. The supernatant was taken, mixed with 0.1% formic acid aqueous solution, and 5 μL of the resulting solution was aspirated for blood concentration analysis.
[Data processing]: A standard curve was plotted using mass spectrometry software, to quantify unknown samples, and pharmacokinetic parameters are calculated by Winnonlin 8.2 using the drug concentration of unknown samples at each time point.

[2] = pH 7.4, probe midazolam, substrate midazolam, read-out: CYP inhibition rate (%) CYP3A4 (midazolam)
[3] = pH 7.4, probe testosterone, substrate testosterone, read-out: CYP inhibition rate (%) CYP3A4 (testosterone)

T2 sequence (P08684 whole entry): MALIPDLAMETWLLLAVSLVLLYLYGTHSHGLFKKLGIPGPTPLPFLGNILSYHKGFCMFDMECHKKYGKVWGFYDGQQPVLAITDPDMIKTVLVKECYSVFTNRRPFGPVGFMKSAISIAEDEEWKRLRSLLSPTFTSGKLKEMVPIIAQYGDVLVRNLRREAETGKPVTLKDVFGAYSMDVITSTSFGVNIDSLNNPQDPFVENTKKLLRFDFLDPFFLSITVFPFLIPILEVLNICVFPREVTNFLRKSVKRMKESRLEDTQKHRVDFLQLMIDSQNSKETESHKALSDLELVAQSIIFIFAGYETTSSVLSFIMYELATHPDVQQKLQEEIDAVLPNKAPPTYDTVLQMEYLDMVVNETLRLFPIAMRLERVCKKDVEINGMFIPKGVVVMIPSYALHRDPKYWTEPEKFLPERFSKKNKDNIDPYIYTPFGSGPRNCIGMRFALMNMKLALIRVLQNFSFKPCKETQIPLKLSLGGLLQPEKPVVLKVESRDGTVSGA
T1 sequence (P10635 whole entry): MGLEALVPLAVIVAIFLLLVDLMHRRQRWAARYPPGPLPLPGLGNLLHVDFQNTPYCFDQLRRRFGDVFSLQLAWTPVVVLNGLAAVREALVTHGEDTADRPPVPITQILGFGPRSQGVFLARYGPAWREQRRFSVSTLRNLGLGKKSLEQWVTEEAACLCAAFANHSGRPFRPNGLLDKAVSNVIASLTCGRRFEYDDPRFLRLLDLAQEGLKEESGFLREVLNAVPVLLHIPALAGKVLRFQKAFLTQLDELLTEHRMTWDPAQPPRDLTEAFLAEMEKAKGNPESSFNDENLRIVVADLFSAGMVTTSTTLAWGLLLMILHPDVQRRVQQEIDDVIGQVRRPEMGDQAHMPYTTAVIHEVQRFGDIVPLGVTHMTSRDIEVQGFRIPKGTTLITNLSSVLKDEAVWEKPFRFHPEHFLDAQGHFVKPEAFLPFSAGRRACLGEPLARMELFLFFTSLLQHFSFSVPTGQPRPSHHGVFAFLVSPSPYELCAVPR

Row | Structure (SMILES) | inhibition at 10 min, 10 µM (CYP2D6) | inhibition at 5 min, 10 µM (CYP3A4; [2]) | inhibition at 5 min, 10 µM (CYP3A4; [3]) | AUC(0-t) [1] | clearance [1] | half-life [1]
1 | C=CC(=O)N1CCN(c2nc(=O)n(-c3c(C)ccnc3C(C)C)c3nc(-c4c(O)cccc4F)c(F)cc23)[C@@H](C)C1 (atropisomer, axis not shown) [AMG510, reference compound] | 23.7% | 63.7% | 24.8% | 231 ng·h/mL | 71.8 mL/min/kg | 29.4 min
2 | C=CC(=O)N1CCN(c2ncnc3c(F)c(-c4ccc(F)c5sc(N)nc45)c(Cl)cc23)CC1 [Ref. Comp. A, reference compound] | 32.6% | 11.1% | 10.9% | 623 ng·h/mL | 27.1 mL/min/kg | 60 min
3 | C=CC(=O)N1CCN(c2c(C#N)cnc3c(F)c(-c4ccc(F)c5sc(N)nc45)c(Cl)cc23)CC1 [Example 9, 4-(4-Acryloylpiperazin-1-yl)-7-(2-amino-7-fluorobenzo[d]thiazol-4-yl)-6-chloro-8-fluoroquinoline-3-carbonitrile] | -11.4% | 24% | 30.9% | 1050 ng·h/mL | 15.8 mL/min/kg | 40.2 min
4 | C=CC(=O)N1CCN(c2c(C#N)cnc3c(F)c(-c4ccc(F)c5sc(N)nc45)c(Cl)cc23)C[C@H]1C [Example 8, 4-((R)-4-acryloyl-3-methylpiperazin-1-yl)-7-(2-amino-7-fluorobenzo[d]thiazol-4-yl)-6-chloro-8-fluoroquinoline-3-carbonitrile] | 13.8% | 22% | 16.9% | – | – | –
